Source: PubChem BioAssay (NCI)
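How tested: cells in 96-well plates exposed to compound for 48 hours at five concentrations. Here, GI50 denotes the concentration required for 50% inhibition of growth. Definition used: TGI = concentration required for complete inhibition of growth.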

Assays:
Test in all cases: NCI tumour cell line growth inhibition, 48 h
MALME-3M melanoma = system: MALME-3M melanoma
UACC-62 melanoma = system: UACC-62 melanoma
IGROV1 ovarian = system: IGROV1 ovarian
SW-620 colon = system: SW-620 colon
OVCAR-3 ovarian = system: OVCAR-3 ovarian
MDA-MB-435 = system: MDA-MB-435
SN12C renal = system: SN12C renal
U251 CNS = system: U251 CNS
BT-549 breast = system: BT-549 breast
MOLT-4 leukemia = system: MOLT-4 leukemia
OVCAR-5 ovarian = system: OVCAR-5 ovarian
RXF 393 renal = system: RXF 393 renal
UO-31 renal = system: UO-31 renal
SF-295 CNS = system: SF-295 CNS
HT29 colon = system: HT29 colon
UACC-257 melanoma = system: UACC-257 melanoma
HCT-116 colon = system: HCT-116 colon
A549 NSCLC = system: A549 NSCLC
K-562 leukemia = system: K-562 leukemia
SK-MEL-2 melanoma = system: SK-MEL-2 melanoma
M14 melanoma = system: M14 melanoma
NCI-H460 lung = system: NCI-H460 lung
NCI-H522 lung = system: NCI-H522 lung
COLO 205 colon = system: COLO 205 colon
SF-268 CNS = system: SF-268 CNS
NCI-H23 lung = system: NCI-H23 lung
SNB-75 CNS = system: SNB-75 CNS
OVCAR-8 ovarian = system: OVCAR-8 ovarian
HCC-2998 colon = system: HCC-2998 colon
CAKI-1 renal = system: CAKI-1 renal
MCF7 breast = system: MCF7 breast
SK-MEL-28 melanoma = system: SK-MEL-28 melanoma
SK-OV-3 ovarian = system: SK-OV-3 ovarian
SK-MEL-5 melanoma = system: SK-MEL-5 melanoma
HOP-62 NSCLC = system: HOP-62 NSCLC
MDA-MB-231 breast = system: MDA-MB-231 breast
LOX IMVI melanoma = system: LOX IMVI melanoma
HCT-15 colon = system: HCT-15 colon
ACHN renal = system: ACHN renal
HOP-92 NSCLC = system: HOP-92 NSCLC
DU-145 prostate = system: DU-145 prostate
SNB-19 CNS = system: SNB-19 CNS
PC-3 prostate = system: PC-3 prostate
EKVX NSCLC = system: EKVX NSCLC
OVCAR-4 ovarian = system: OVCAR-4 ovarian
HS 578T breast = system: HS 578T breast
KM12 colon = system: KM12 colon
NCI-H226 lung = system: NCI-H226 lung
TK-10 renal = system: TK-10 renal
NCI/ADR-RES ovarian = system: NCI/ADR-RES ovarian
786-0 renal = system: 786-0 renal

**Q.** What does the source list for O=C1C=CC(=O)c2cc3cc(CO)ccc3cc21?
**A.** GI50 (MALME-3M melanoma): 11.5 µM; TGI (MALME-3M melanoma): 26.1 µM; GI50 (UACC-62 melanoma): 17.9 µM; TGI (UACC-62 melanoma): 31.8 µM; GI50 (IGROV1 ovarian): 8.79 µM; TGI (IGROV1 ovarian): 26 µM; GI50 (SW-620 colon): 1.51 µM; TGI (SW-620 colon): 2.91 µM; GI50 (OVCAR-3 ovarian): 1.71 µM; TGI (OVCAR-3 ovarian): 4.2 µM; GI50 (MDA-MB-435): 10.4 µM; TGI (MDA-MB-435): 23.6 µM; GI50 (SN12C renal): 5.76 µM; TGI (SN12C renal): 15.8 µM; GI50 (U251 CNS): 15.4 µM; TGI (U251 CNS): 28.7 µM; GI50 (BT-549 breast): 12.9 µM; TGI (BT-549 breast): 25.7 µM; GI50 (MOLT-4 leukemia): 0.621 µM; TGI (MOLT-4 leukemia): > 100 µM; GI50 (OVCAR-5 ovarian): 20.5 µM; TGI (OVCAR-5 ovarian): 55.6 µM; GI50 (RXF 393 renal): 14.6 µM; TGI (RXF 393 renal): 29.9 µM; GI50 (UO-31 renal): 2.35 µM; TGI (UO-31 renal): 4.58 µM; GI50 (SF-295 CNS): 20 µM; TGI (SF-295 CNS): 37.8 µM; GI50 (HT29 colon): 10.9 µM; TGI (HT29 colon): > 100 µM; GI50 (UACC-257 melanoma): 12 µM; TGI (UACC-257 melanoma): 27.2 µM; GI50 (HCT-116 colon): 1.82 µM; TGI (HCT-116 colon): 3.22 µM; GI50 (A549 NSCLC): 19.3 µM; TGI (A549 NSCLC): 45.1 µM; GI50 (K-562 leukemia): 1.06 µM; TGI (K-562 leukemia): 3.04 µM; GI50 (SK-MEL-2 melanoma): 16.8 µM; TGI (SK-MEL-2 melanoma): 32.8 µM; GI50 (M14 melanoma): 14.4 µM; TGI (M14 melanoma): 27.5 µM; GI50 (NCI-H460 lung): 19.1 µM; TGI (NCI-H460 lung): 39.8 µM; GI50 (NCI-H522 lung): 9.48 µM; TGI (NCI-H522 lung): 26.4 µM; GI50 (COLO 205 colon): 11.1 µM; TGI (COLO 205 colon): 49.5 µM; GI50 (SF-268 CNS): 16.7 µM; TGI (SF-268 CNS): 34.7 µM; GI50 (NCI-H23 lung): 15.8 µM; TGI (NCI-H23 lung): 29.2 µM; GI50 (SNB-75 CNS): 19.9 µM; TGI (SNB-75 CNS): 48.6 µM; GI50 (OVCAR-8 ovarian): 2.94 µM; TGI (OVCAR-8 ovarian): 11.2 µM; GI50 (HCC-2998 colon): 4.42 µM; TGI (HCC-2998 colon): 14.1 µM; GI50 (CAKI-1 renal): 3.48 µM; TGI (CAKI-1 renal): 10.3 µM; GI50 (MCF7 breast): 14.5 µM; TGI (MCF7 breast): 33.3 µM; GI50 (SK-MEL-28 melanoma): 29.5 µM; TGI (SK-MEL-28 melanoma): > 100 µM; GI50 (SK-OV-3 ovarian): 31.9 µM; TGI (SK-OV-3 ovarian): > 100 µM; GI50 (SK-MEL-5 melanoma): 10.9 µM; TGI (SK-MEL-5 melanoma): 22.9 µM; GI50 (HOP-62 NSCLC): 17.3 µM; TGI (HOP-62 NSCLC): 31.1 µM; GI50 (MDA-MB-231 breast): 11.5 µM; TGI (MDA-MB-231 breast): 24.9 µM; GI50 (LOX IMVI melanoma): 1.94 µM; TGI (LOX IMVI melanoma): 4.1 µM; GI50 (HCT-15 colon): 15.1 µM; TGI (HCT-15 colon): 28.4 µM; GI50 (ACHN renal): 3.22 µM; TGI (ACHN renal): 10.8 µM; GI50 (HOP-92 NSCLC): 2.76 µM; TGI (HOP-92 NSCLC): 6.51 µM; GI50 (DU-145 prostate): 1.1 µM; TGI (DU-145 prostate): 2.54 µM; GI50 (SNB-19 CNS): 20 µM; TGI (SNB-19 CNS): 66.8 µM; GI50 (PC-3 prostate): 16.2 µM; TGI (PC-3 prostate): 34.1 µM; GI50 (EKVX NSCLC): 14.5 µM; TGI (EKVX NSCLC): 28.1 µM; GI50 (OVCAR-4 ovarian): 5.55 µM; TGI (OVCAR-4 ovarian): 24.7 µM; GI50 (HS 578T breast): 21.3 µM; TGI (HS 578T breast): 55.4 µM; GI50 (KM12 colon): 19.3 µM; TGI (KM12 colon): 51.3 µM; GI50 (NCI-H226 lung): 16.7 µM; TGI (NCI-H226 lung): 31.5 µM; GI50 (TK-10 renal): 15.5 µM; TGI (TK-10 renal): 30 µM; GI50 (NCI/ADR-RES ovarian): 19.5 µM; TGI (NCI/ADR-RES ovarian): 36.2 µM; GI50 (786-0 renal): 1.74 µM; TGI (786-0 renal): 3.31 µM
